Assay results: ChEMBL document CHEMBL5543142, “Discovery of YFJ-36: Design, Synthesis, and Antibacterial Activities of Catechol-Conjugated β-Lactams against Gram-Negative Bacteria” (J Med Chem, 2024)

Key:
Acinetobacter baumannii [1] = assay: Antibacterial activity against multidrug-resistant Acinetobacter baumannii BM-2023-D2-010 infected in ICR mouse assessed as survival rate at 6.72 mg/kg,iv after 1 and 5 hour of post-infection measured after 7 days relative to control; format: functional; settings: time 7 day
[2] = Half life in ICR mouse at 20 mg/kg,iv administration measured upto 6 hrs by LC-MS/MS analysis; format: ADME, organism-based; settings: in vivo
[3] = AUC (0 to infinity) in ICR mouse at 20 mg/kg,iv administration measured upto 6 hrs by LC-MS/MS analysis; format: ADME, organism-based; settings: in vivo
[4] = Clearance in ICR mouse at 20 mg/kg,iv administration measured upto 6 hrs by LC-MS/MS analysis; format: ADME, organism-based; settings: in vivo
Acinetobacter baumannii [5] = assay: Antibacterial activity against multidrug-resistant Acinetobacter baumannii BM-2023-D2-010 infected in ICR mouse assessed as survival rate at 13.7 mg/kg,iv after 1 and 5 hour of post-infection measured after 7 days relative to control; format: functional; settings: time 7 day
[6] = Volume of distribution at steady state in ICR mouse at 20 mg/kg,iv administration measured upto 6 hrs by LC-MS/MS analysis; format: ADME, organism-based; settings: in vivo, read-out: Vdss
Acinetobacter baumannii [7] = assay: Antibacterial activity against multidrug-resistant Acinetobacter baumannii BM-2023-D2-010 infected in ICR mouse assessed as survival rate at 28 mg/kg,iv after 1 and 5 hour of post-infection measured after 7 days relative to control; format: functional; settings: time 7 day
[8] = MRT in ICR mouse at 20 mg/kg,iv administration measured upto 6 hrs by LC-MS/MS analysis; format: ADME, organism-based; settings: in vivo
Acinetobacter baumannii [9] = assay: Antibacterial activity against multidrug-resistant Acinetobacter baumannii BM-2023-D2-010 infected in ICR mouse assessed as survival rate at 3.3 mg/kg,iv after 1 and 5 hour of post-infection measured after 7 days relative to control; format: functional; settings: time 7 day
Acinetobacter baumannii [10] = assay: Antibacterial activity against multidrug-resistant Acinetobacter baumannii BM-2023-D2-010 infected in ICR mouse assessed as survival rate at 4.71 mg/kg,iv after 1 and 5 hour of post-infection measured after 7 days relative to control; format: functional; settings: time 7 day
Acinetobacter baumannii [11] = assay: Antibacterial activity against multidrug-resistant Acinetobacter baumannii BM-2023-D2-010 infected in ICR mouse assessed as survival rate at 9.6 mg/kg,iv after 1 and 5 hour of post-infection measured after 7 days relative to control; format: functional; settings: time 7 day
Acinetobacter baumannii [12] = assay: Antibacterial activity against multidrug-resistant Acinetobacter baumannii BM-2023-D2-010 infected in ICR mouse assessed as survival rate at 40 mg/kg,iv after 1 and 5 hour of post-infection measured after 7 days relative to control; format: functional; settings: time 7 day
Acinetobacter baumannii [13] = assay: Antibacterial activity against multidrug-resistant Acinetobacter baumannii BM-2023-D2-010 infected in ICR mouse assessed as survival rate at 19.6 mg/kg,iv after 1 and 5 hour of post-infection measured after 7 days relative to control; format: functional; settings: time 7 day
hERG (KCNH2) = hERG (KCNH2) (Homo sapiens, UniProt Q12809); assay: Inhibition of hERG at 3 uM by whole cell Qpatch assay relative to control; format: toxicity
Sequence of hERG (KCNH2) (Q12809 whole entry): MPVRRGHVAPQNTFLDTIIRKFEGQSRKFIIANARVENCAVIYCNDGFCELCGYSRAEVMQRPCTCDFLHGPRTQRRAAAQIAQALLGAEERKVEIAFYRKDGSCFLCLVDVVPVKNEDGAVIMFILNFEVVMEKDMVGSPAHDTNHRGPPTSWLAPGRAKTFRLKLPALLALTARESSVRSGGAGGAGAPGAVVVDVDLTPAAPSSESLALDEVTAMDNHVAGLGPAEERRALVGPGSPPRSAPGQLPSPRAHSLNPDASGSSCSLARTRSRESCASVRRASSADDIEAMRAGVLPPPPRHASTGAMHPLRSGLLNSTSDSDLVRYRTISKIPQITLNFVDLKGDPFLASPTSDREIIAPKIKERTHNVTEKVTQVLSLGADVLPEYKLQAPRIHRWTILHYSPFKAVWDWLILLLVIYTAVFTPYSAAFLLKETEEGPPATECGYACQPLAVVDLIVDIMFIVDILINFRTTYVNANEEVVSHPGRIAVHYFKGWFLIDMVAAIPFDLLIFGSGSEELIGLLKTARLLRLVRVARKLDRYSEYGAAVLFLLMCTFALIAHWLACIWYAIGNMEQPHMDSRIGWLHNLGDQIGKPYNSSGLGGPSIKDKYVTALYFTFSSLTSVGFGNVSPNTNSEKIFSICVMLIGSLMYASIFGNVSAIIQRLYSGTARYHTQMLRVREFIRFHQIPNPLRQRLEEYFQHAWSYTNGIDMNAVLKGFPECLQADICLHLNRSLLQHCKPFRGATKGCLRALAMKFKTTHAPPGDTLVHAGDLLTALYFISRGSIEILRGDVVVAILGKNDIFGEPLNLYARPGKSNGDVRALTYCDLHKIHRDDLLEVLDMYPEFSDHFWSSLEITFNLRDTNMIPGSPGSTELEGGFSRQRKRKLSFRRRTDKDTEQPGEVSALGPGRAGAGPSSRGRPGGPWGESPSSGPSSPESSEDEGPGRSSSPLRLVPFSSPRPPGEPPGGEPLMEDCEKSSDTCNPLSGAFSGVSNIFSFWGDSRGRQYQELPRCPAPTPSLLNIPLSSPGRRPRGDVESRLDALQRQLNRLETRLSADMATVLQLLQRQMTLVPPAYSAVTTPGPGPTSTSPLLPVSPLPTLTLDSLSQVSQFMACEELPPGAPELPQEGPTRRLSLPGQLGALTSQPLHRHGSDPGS

| SMILES | Activity (Acinetobacter baumannii [1]) | half-life [2] | AUC(0-inf) [3] | clearance [4] | Activity (Acinetobacter baumannii [5]) | Vd [6] | Activity (Acinetobacter baumannii [7]) | MRT [8] | Activity (Acinetobacter baumannii [9]) | Activity (Acinetobacter baumannii [10]) | Activity (Acinetobacter baumannii [11]) | Activity (Acinetobacter baumannii [12]) | Activity (Acinetobacter baumannii [13]) | inhibition at 3 µM (hERG (KCNH2)) |
| --- | --- | --- | --- | --- | --- | --- | --- | --- | --- | --- | --- | --- | --- | --- |
| CC(C)(O/N=C(\C(=O)N[C@@H]1C(=O)N2C(C(=O)[O-])=C(C[N+]3(CCNC(=O)c4ccc(O)c(O)c4Cl)CCCC3)CS[C@H]12)c1csc(N)n1)C(=O)[O-].[Na+] | 50% | 16.2 min | 11600 ng·h/mL | 29.2 mL/min/kg | 100% | 0.488 L/kg | 100% | 16.8 min | 0% | 20% | 70% | 100% | 100% | – |
| COc1cc(N)c(Cl)cc1C(=O)N[C@H]1CCN(CCCOc2ccc(F)cc2)C[C@H]1OC [REL-CISAPRIDE] | – | – | – | – | – | – | – | – | – | – | – | – | – | 97.8% |
